{
  "source": "patent US20070142465A1",
  "about": "“Macrophage activation inhibitor” (priority 2003, published 2007)",
  "key": {"NF-κB": {"tested_on": "NF-κB", "assay": "Inhibition of NF-κB activation", "details": "compared with (±)-DHM2EQ"}, "RAW264.7 cells [1]": {"tested_on": "RAW264.7 cells", "assay": "NO production in activated RAW264.7 cells (Griess reagent, OD570)", "type": "cell-based", "description": "It is known that, in macrophages, the expression of iNOS is induced by lipopolysaccharides such as LPS and interferons such as IFN-γ, thereby triggering NO production. Thus, by using macrophage-derived cultured cells, the influence of (±)-DHM2EQ on NO production when LPS and IFN-γ were used in combination with (±)-DHM2EQ was examined.\n(§1) Since NO produced is released out of cells and mixed in the medium, being present as NO2^−, the amount of NO produced was determined by developing a color reaction and measuring optical density (OD570) after the addition of the Griess reagent to the a medium. Then, each amount of NO produced when (±)-DHM2EQ was applied at different concentrations was compared as a relative value by taking OD570 of the sample […] the addition of macrophage activating factor as 100%.\n(§2) A cell suspension prepared at 4×10^5 cells/ml was plated at 200 μl/well in 96-well plates (Costar:Acton, Mass.). (±)-DHM2EQ was diluted at 0, 1, 3, and 10 μg/ml and added to each well of the plates. After 2-hour incubation under the condition of 37° C. in 5% CO2, IFN-γ (final concentration: 100 ng/ml) and LPS (final concentration: 10 μg/ml) were added to the wells and then the plates were incubated for 18 hours. 100 μl of the Griess reagent was added to each of the cell suspensions and allowed to react for 10 min, and then OD570 was measured with a microplate reader."}, "J774.1 cells": {"tested_on": "J774.1 cells", "assay": "NO production in activated J774.1 cells (Griess reagent)", "type": "cell-based", "details": "IFN-γ + LPS", "description": "as §1, §2\nThe effect of (±)-DHM2EQ on NO production in another activated macrophage-derived cell line, J774.1, was examined in the same manner as described in Example 1."}, "RAW264.7 cells [2]": {"tested_on": "RAW264.7 cells", "assay": "Intracellular NO in RAW264.7 cells observed in situ with DAF-2DA fluorescence", "type": "cell-based", "details": "IFN-γ + LPS, 10 μg/ml compound", "description": "Further, to observe suppression of NO production in situ in macrophage-derived RAW264.7 cells by (±)-DHM2EQ when LPS and IFN-γ are used in combination with (±)-DHM2EQ, intracellular NO was directly observed using diaminofluorescein-2 diacetate (DAF-2DA; Daiich Pure Chemicals).\n500 μl of RAW264.7 cells were first plated in each chamber on chamber slides at a concentration of 6×10^5 cells/ml. After 1 day incubation under the condition of 37° C. in 5% CO2, (±)-DHM2EQ was added, followed by 2-hour incubation. Subsequently, IFN-γ (final concentration: 100 ng/ml) and LPS (final concentration: 10 μg/ml) were added, followed by 6-hour incubation. Then, the medium was changed to DAF-2DA-containing phosphate buffered saline (PBS; 8 g/l NaCl, 0.2 g/l KCl, 0.916 g/l Na2HPO4, 0.2 g/l KH2PO4), followed by further 2-hour incubation. The fluorescence images were then observed with a fluorescence microscope."}, "RAW264.7 cells [3]": {"tested_on": "RAW264.7 cells", "assay": "iNOS expression in LPS-activated RAW264.7 cells (Western blot)", "type": "cell-based", "details": "LPS 10 μg/ml, 24 h, 0, 1, 3, 10 μg/ml compound", "description": "Since NO is produced by the enzyme iNOS within cells, it was examined whether this suppression results from suppression of iNOS expression.\nCells were plated in 100 mm dishes at 4×10^5 cells/ml, incubated overnight, and then (±)-DHM2EQ was added at final concentrations of 0, 1, 3, and 10 μg/ml. After 2 hours, LPS (final concentration: 10 μg/ml) was added to stimulate for 24 hours. Then, cell suspension was collected and centrifuged, and cells were lysed in 65 μl of prepared lysis buffer (50 mM Tris-HCl: pH 8.0, 1% NP-40, 20 mM EDTA, 100 mM NaVO4, 0.1 mg/ml leupeptin, 1 mM PMSF). Then, the supernatant of the cell lysate was isolated, each protein concentration was measured, and the predetermined mass of protein was boiled as a sample. This sample was subjected to SDS-PAGE and the proteins on the gel were transferred to a nitrocellulose membrane, which was then reacted with anti-iNOS antibody (Santa Cruz) followed by sheep anti-rabbit IgG antibody (Amersham). Subsequently, color was developed by the ECL detection system, and the signal was detected by exposing the membrane to the film (Fuji Photo Film)"}, "RAW264.7 cells [4]": {"tested_on": "RAW264.7 cells", "assay": "COX-2 production in LPS-activated RAW264.7 cells (Western blot)", "type": "cell-based", "details": "LPS 10 μg/ml, 24 h, 1, 3, 10 μg/ml compound", "from_the_text": "It is known that macrophages activated by inflammatory stimuli and growth factor produces COX-2, a prostaglandin synthase, which is responsible for various pathological conditions such as inflammation, cancer cell proliferation, cancer development, angiogenesis, tumor metastasis, etc. Further, it has recently been known that, in systemic lupus erythematosus (SLE), which is an autoimmune disease, self-reactive T cells acquire resistance to apoptosis with increasing COX-2 expression (Nature Medicine 10, 411-415, 2004) Thus, on the assumption that use of (±)-DHM2EQ might make it possible to inhibit macrophage activation and thereby to suppress COX-2 production, the effect of (±)-DHM2EQ on COX-2 production in RAW264.7 cells derived from macrophages activated by LPS stimulation was examined.\nRAW264.7 cells were plated at 4×10^6 cells/dish in a 100 mm dish (Coaster:Acton, Mass.) containing DMEM medium, and the plates were incubated overnight at 37° C. under 5% CO2. Then, (±)-DHM2EQ (final concentrations: 1, 3, and 10 μg/ml) was added followed by 2-hour incubation and then LPS (final concentration: 10 μg/ml) was added followed by 24-hour stimulation. The cells were then recovered and lysed with 65 μl of lysis buffer (50 mM Tris-HCl: pH 8.0, 1% NP-40, 20 mM EDTA, 100 mM NaVO4, 0.1 mg/ml leupeptin, 1 mM PMSF) and SDS-PAGE was performed. […]"}, "RAW264.7 cells [5]": {"tested_on": "RAW264.7 cells", "assay": "TNF-α secretion from IL-1β-activated RAW264.7 cells", "type": "cell-based", "details": "IL-1β 10 ng/ml, 6 h"}, "RAW264.7 cells [6]": {"tested_on": "RAW264.7 cells", "assay": "IL-1β secretion from LPS-activated RAW264.7 cells (ELISA)", "type": "cell-based, mouse", "details": "LPS 10 μg/ml, 24 h, 0, 1, 3, 10 μg/ml compound", "description": "Next, the effect of (±)-DHM2EQ on IL-1β secretion, which is another marker of macrophage activation in macrophage-derived RAW264.7 cells activated by […], was examined.\n500 μl of RAW264.7 cells were plated in each well at a concentration of 4×10^5 cells/ml, and the plates were incubated at 37° C. for 1-day. (±)-DHM2EQ (final concentrations: 0, 1, 3, and 10 μg/ml) was then added followed by 2-hour incubation and then LPS (final concentration: 10 μg/ml) was added followed by 24-hour stimulation. After the stimulation, the cell supernatant was recovered (500 μ/l each), and centrifuged at 15000 rpm for 2 min, and the insoluble fractions were removed; the samples were thus obtained.\nThe amount of IL-1β secretion was examined using mouse IL-1β ELISA assay kit (R&D Systems; Minneapolis, U.S.). First, 50 μl of Reaction Buffer was added to 96-well microplates, on which mouse IL-1β antibody (polyclonal antibody) had been fixed, and 50 βl of the aforementioned sample were applied to each well of the plates. […] Subsequently, 100 μl of stopping solution was added and the OD value at 450 nm was measured using a microplate reader. Then, the concentration of IL-1β was determined from the calibration curve constructed using mouseIL-1β standard supplied with mouse IL-1β ELISA assay kit."}, "RAW264.7 cells [7]": {"tested_on": "RAW264.7 cells", "assay": "Phagocytosis of fluorescent-labeled E. coli by activated RAW264.7 cells", "type": "cell-based", "from_the_text": "Macrophages contribute to host defense mechanism by, when infected with bacteria, engulfing the whole or part of the bacteria as foreign matter and digesting the foreign matter in the lysosome containing hydrolytic enzymes, etc. This penomenon of engulfing foreign matter, referred to as phagocytosis, is marker of macrophage activation. Thus, by using as a marker phagocytotic ability of RAW264.7 cells derived from macrophages activated by the LPS or IL-1β stimulation, the effect of (±)-DHM2EQ on macrophage activation was examined.\n500 μl of RAW264.7 cells were plated in each chamber at a concentration of 4×10^5 cells/ml in chamber slides. After an overnight incubation, (±)-DHM2EQ was added, and the slides were incubated for 2 hours. LPS (final concentration: 1 μg/ml) was then added, and the slides were incubated for 10 mins and then washed with 750 μl of PBS two times. Subsequently, PBS was removed and 250 μl of the solution containing fluorescent-labeled E. coli (Molecular probes, U.S.) (i.e. a solution of fluorescent-labeled E. coli diluted with […] of PBS) was added to each chamber, and the slides were incubated for 2 hours at room temperature the cells were then washed twice in 750 μl of PBS and the phagocytic ability of macrophage-derived RAW264.7 cells were observed under a fluorescence microscope and a phase-contrast microscope. In addition, in the activation using IL-1β, the phagocytic ability of macrophage-derived RAW264.7 cells was examined in the same manner as above, except that IL-1β (final concentration: 10 ng/ml) was added in place of LPS."}, "RAW264.7 cells [8]": {"tested_on": "RAW264.7 cells", "assay": "IL-6 secretion from LPS-activated RAW264.7 cells (ELISA)", "type": "cell-based", "details": "LPS 10 μg/ml, 24 h"}},
  "data": [
    {"compound": "O=C(NC1=CC(=O)[C@H]2O[C@H]2[C@H]1O)c1ccccc1O", "note": "[(−)-DHM2EQ]", "values": [
      {"measurement": "inhibitory effect on NF-κB activation", "setting": "NF-κB", "value": "stronger inhibitory effect on NF-κB activation than (±)-DHM2EQ"}
    ]},
    {"compound": "O=C(NC1=CC(=O)C2OC2C1O)c1ccccc1O", "note": "(racemic) [(±)-DHM2EQ, 5,6-epoxy-4-hydroxy-3-salicyloylamino-2-cyclohexenone]", "values": [
      {"measurement": "NO production", "setting": "RAW264.7 cells [1]; IFN-γ 100 ng/ml + LPS 10 μg/ml, 18 h, 0, 1, 3, 10 μg/ml compound", "value": "suppressed depending on the concentration of (±)-DHM2EQ added"},
      {"measurement": "NO production", "setting": "RAW264.7 cells [1]; IFN-γ + LPS, 10 μg/ml compound", "value": "suppressed almost to the control level"},
      {"measurement": "NO production", "setting": "J774.1 cells; 10 μg/ml compound", "value": "suppressed to the control level"},
      {"measurement": "NO production", "setting": "J774.1 cells; concentration series", "value": "suppressed depending on (±)-DHM2EQ treatment concentration"},
      {"measurement": "intracellular NO production (DAF-2DA fluorescence)", "setting": "RAW264.7 cells [2]", "value": "suppressed to the control level"},
      {"measurement": "iNOS expression", "setting": "RAW264.7 cells [3]", "value": "suppresses the expression of iNOS depending on its treatment concentration"},
      {"measurement": "COX-2 production", "setting": "RAW264.7 cells [4]", "value": "suppresses COX-2 production depending on its treatment concentration"},
      {"measurement": "TNF-α production", "setting": "RAW264.7 cells [5]", "value": "suppresses TNF-α production depending on its treatment concentration"},
      {"measurement": "IL-1β secretion", "setting": "RAW264.7 cells [6]", "value": "suppresses the expression of IL-1β depending on its treatment concentration"},
      {"measurement": "phagocytosis of E. coli", "setting": "RAW264.7 cells [7]; IL-1β stimulation, pretreatment with 10 μg/ml compound", "value": "suppressed almost to the same level as the control"},
      {"measurement": "phagocytosis of E. coli", "setting": "RAW264.7 cells [7]; LPS stimulation, pretreatment with 10 μg/ml compound", "value": "suppressed almost to the same level as the control"},
      {"measurement": "phagocytosis of E. coli", "setting": "RAW264.7 cells [7]; LPS stimulation, pretreatment, concentration series", "value": "suppressed depending on its treatment concentration"},
      {"measurement": "IL-6 production", "setting": "RAW264.7 cells [8]", "value": "suppresses IL-6 production depending on its treatment concentration"}
    ]}
  ]
}
